The source made the active and inactive calls. The calls are words filed in the database; no cut-off is given here.

The results in this text go back to ChEMBL document CHEMBL1139909, “Safrole oxide is a useful tool for investigating the effect of apoptosis in vascular endothelial cells on neural stem cell survival and differentiation in vitro” (2007).

One experiment deals with Neural stem cell. The experiment is described as follows: Induction of apoptosis in neural stem cells assessed as cell viability at 10 to 100 ug/mL by MTT assay. It is filed as functional, cell-based. The following applies: Mus musculus. A general note: Formazan colour is commonly taken as a measure of viable cells.
Experiment [1] deals with Endothelial cell. The experiment is described as follows: Induction of apoptosis in neural stem cells co-cultured with vascular endothelial cells assessed as neurites degeneration at 70 ug/mL after 10 hrs. It counts as functional, cell-based. Conditions: Mus musculus.
For experiment [2], the system named is Endothelial cell. The experiment is described as follows: Induction of necrosis in neural stem cells co-cultured with vascular endothelial cells assessed as LDH release at 70 ug/mL after 10 hrs relative to control. It counts as functional, cell-based. The following applies: Mus musculus. A general note: Release of lactate dehydrogenase indicates damage to the cell membrane.

The test system of experiment [3] is Endothelial cell. The experiment can be described thus: Induction of apoptosis in neural stem cells co-cultured with vascular endothelial cells assessed as inhibition of cell differentiation at 70 ug/mL after 10 hrs. It is filed as functional, cell-based. The following applies: Mus musculus.
The test system of experiment [4] is Endothelial cell. The experiment can be described thus: Induction of apoptosis in neural stem cells co-cultured with vascular endothelial cells assessed as nuclear condensation at 70 ug/mL after 10 hrs. The following applies: Mus musculus. It is filed as functional, cell-based.
Experiment [5] has as its system Endothelial cell. The experiment can be described thus: Induction of apoptosis in neural stem cells co-cultured with vascular endothelial cells assessed as DNA fragmentation at 70 ug/mL after 10 hrs. It is filed as functional, cell-based. The following applies: Mus musculus.
Experiment [6] can be described thus: Increase in apoptosis rate in neural stem cells co-cultured with vascular endothelial cells assessed as cell survival at 70 ug/mL after 10 hrs. It is filed as functional. Conditions: Mus musculus, read-out: Activity.

With `c1cc2c(cc1CC1CO1)OCO2` (configuration not stated), the outcome with Neural stem cell and in the experiment on Endothelial cell [2] was inactive. Moreover, the outcome with Endothelial cell [1], in the experiment with Endothelial cell [3], in the experiment with Endothelial cell [4] and in the experiment with Endothelial cell [5] was Active. In experiment [6], the viability at 70 µg/mL worked out at 92%.
